Measured values as given in PubChem BioAssay AID330 (DTP/NCI, 2004).
Values joined by “and” are separate entries in the source; they are usually repeats but may differ in a detail not shown here. Equal entries are not always repeated. Inconclusive results and toxic doses are left out. Rule for the calls: active = survival T/C of 150% or more; inactive = T/C below 125% in these data. Peptide text beside a SMILES is read from it.

Tested on: P388 leukemia ip, CD2F1 mice, survival T/C
Assay: NCI In Vivo Anticancer Drug Screen. Data for tumor model P388 Leukemia (intraperitoneal) in CD2F1 (CDF1) mice
Settings: endpoint: median survival time, higher = longer survival
Procedure, shortened: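 Mice carrying the transplanted tumor received test compound or vehicle. Survival was recorded in each group, and the value is the treated-group measurement divided by that of the vehicle-treated control group.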

[1] = dose: 50.0 mg/kg/injection, schedule: Q01DX005 (ip), vehicle: Klucel (hydroxypropylcellulose) (HPC)
[2] = dose: 100.0 mg/kg/injection, schedule: Q01DX005 (ip), vehicle: Klucel (hydroxypropylcellulose) (HPC)
[3] = dose: 200.0 mg/kg/injection, schedule: Q01DX005 (ip), vehicle: Klucel (hydroxypropylcellulose) (HPC)
[4] = dose: 100.0 mg/kg/injection, schedule: Q01DX001 (ip), vehicle: saline with Tween-80
[5] = dose: 200.0 mg/kg/injection, schedule: Q01DX001 (ip), vehicle: saline with Tween-80
[6] = dose: 400.0 mg/kg/injection, schedule: Q01DX001 (ip), vehicle: saline with Tween-80
[7] = dose: 12.5 mg/kg/injection, schedule: Q01DX005 (ip), vehicle: Klucel (hydroxypropylcellulose) (HPC)
[8] = dose: 50.0 mg/kg/injection, schedule: Q01DX009 (ip), vehicle: saline with Tween-80
[9] = dose: 100.0 mg/kg/injection, schedule: Q01DX009 (ip), vehicle: saline with Tween-80
[10] = dose: 200.0 mg/kg/injection, schedule: Q01DX009 (ip), vehicle: saline with Tween-80
[11] = dose: 50.0 mg/kg/injection, schedule: Q01DX005 (ip), vehicle: saline with Tween-80
[12] = dose: 100.0 mg/kg/injection, schedule: Q01DX005 (ip), vehicle: saline with Tween-80
[13] = dose: 200.0 mg/kg/injection, schedule: Q01DX005 (ip), vehicle: saline with Tween-80
[14] = dose: 12.5 mg/kg/injection, schedule: Q01DX009 (ip), vehicle: saline with Tween-80
[15] = dose: 25.0 mg/kg/injection, schedule: Q01DX009 (ip), vehicle: saline with Tween-80
[16] = dose: 60.0 mg/kg/injection, schedule: Q01DX005 (ip), vehicle: saline with Tween-80
[17] = dose: 120.0 mg/kg/injection, schedule: Q01DX005 (ip), vehicle: saline with Tween-80
[18] = dose: 240.0 mg/kg/injection, schedule: Q01DX005 (ip), vehicle: saline with Tween-80
[19] = dose: 60.0 mg/kg/injection, schedule: Q01DX005 (ip), vehicle: Klucel (hydroxypropylcellulose) (HPC)
[20] = dose: 120.0 mg/kg/injection, schedule: Q01DX005 (ip), vehicle: Klucel (hydroxypropylcellulose) (HPC)
[21] = dose: 240.0 mg/kg/injection, schedule: Q01DX005 (ip), vehicle: Klucel (hydroxypropylcellulose) (HPC)
[22] = dose: 50.0 mg/kg/injection, schedule: Q01DX009 (ip), vehicle: Klucel (hydroxypropylcellulose) (HPC)
[23] = dose: 100.0 mg/kg/injection, schedule: Q01DX009 (ip), vehicle: Klucel (hydroxypropylcellulose) (HPC)
[24] = dose: 100.0 mg/kg/injection, schedule: Q04DX003 (ip), vehicle: saline with Tween-80
[25] = dose: 200.0 mg/kg/injection, schedule: Q04DX003 (ip), vehicle: saline with Tween-80
[26] = dose: 200.0 mg/kg/injection, schedule: Q01DX009 (ip), vehicle: Klucel (hydroxypropylcellulose) (HPC)

Measured: T/C

OCCOc1ccc(OCCO)c2ccccc12
inactive: [1] 103 % of control | [2] 104 % of control | [3] 100 % of control

COc1ccc(-c2c(C#N)c(N)nc(C)c2-c2ccccc2)cc1
inactive: [4] 100 % of control | [5] 96 % of control | [6] 91 % of control

COc1cc(/C=C/C(=O)C(CN(C)C)CN(C)C)cc(OC)c1OC
inactive: dose: 6.25 mg/kg/injection, schedule: Q01DX005 (ip), vehicle: Klucel (hydroxypropylcellulose) (HPC) 100 % of control | [7] 103 % of control

CC(NC(=O)C(C)NC(=O)C(N)CCC(=O)O)C(=O)O (stereo not drawn) (H-Glu-Ala-Ala-OH; configuration not given here)
inactive: dose: 50.0 mg/kg/injection, schedule: Q01DX005 (ip), vehicle: saline 104 % of control | dose: 100.0 mg/kg/injection, schedule: Q01DX005 (ip), vehicle: saline 104 % of control | dose: 200.0 mg/kg/injection, schedule: Q01DX005 (ip), vehicle: saline 103 % of control

CCCCCCCCCCCCCOCC(=O)OC
inactive: [8] 100 % of control | [9] 104 % of control | [10] 105 % of control

COC(=O)C1C2C=CC(C1C(=O)OC)C1C3C(=O)N(N)C(=O)C3C21 (stereo not drawn)
inactive: [11] 100 % of control | [12] 96 % of control | [13] 91 % of control

CCCCCCC(=O)/C=C/c1cc(OC)ccc1OC
inactive: [14] 100 % of control | [15] 99 % of control | [8] 99 % of control | [9] 99 % of control and 96 % of control | [10] 97 % of control

CCC(C)C(NC(=O)OCC1c2ccccc2-c2ccccc21)C(=O)O (stereo not drawn)
inactive: [1] 100 % of control | [2] 100 % of control | [3] 104 % of control

O=C(O)c1ncnn1-c1ccccc1
inactive: dose: 60.0 mg/kg/injection, schedule: Q01DX005 (ip), vehicle: saline 91 % of control | dose: 120.0 mg/kg/injection, schedule: Q01DX005 (ip), vehicle: saline 96 % of control | dose: 240.0 mg/kg/injection, schedule: Q01DX005 (ip), vehicle: saline 99 % of control

COc1cc(/C=C/Cc2cc3c(cc2OCCO)OCO3)cc(OC)c1OC
inactive: [16] 94 % of control | [17] 92 % of control | [18] 101 % of control

O=S(=O)(NC(Cc1nc2ccccc2[nH]1)c1nc2ccccc2[nH]1)c1ccccc1 (stereo not drawn)
inactive: [8] 95 % of control | [9] 89 % of control | [10] 93 % of control

CC1=CC(=C2C(=O)c3ccccc3C2=O)C=C(C)O1
inactive: [1] 101 % of control | [19] 95 % of control | [2] 89 % of control | [20] 90 % of control | [3] 88 % of control | [21] 87 % of control

CCOC1=C(CC)C(=O)c2ccccc2C1=O
inactive: [1] 100 % of control | [2] 100 % of control | [3] 107 % of control

O=[N+]([O-])c1cccc(/C=C/S(=O)(=O)Cc2ccccc2)c1
inactive: [11] 101 % of control | [12] 100 % of control | [13] 92 % of control

C#CC(C)(C)NC(=O)NC12CC3CC(CC(C3)C1)C2
inactive: dose: 12.5 mg/kg/injection, schedule: Q01DX001 (ip), vehicle: saline with Tween-80 94 % of control | dose: 25.0 mg/kg/injection, schedule: Q01DX001 (ip), vehicle: saline with Tween-80 86 % of control | dose: 50.0 mg/kg/injection, schedule: Q01DX001 (ip), vehicle: saline with Tween-80 89 % of control

CC1(c2ccc(N)cc2)NC(=O)NC1=O (stereo not drawn)
inactive: [22] 99 % of control | [23] 96 % of control

O=c1[nH]c(=O)c2[nH]c(N=Nc3ccc(S(=O)(=O)O)cc3)nc2[nH]1
inactive: [1] 95 % of control | [2] 99 % of control | [3] 100 % of control

Cc1cc(C)cc(C(C)(C)C)c1
inactive: [24] 100 % of control | [25] 100 % of control

O=C(CCCl)Nc1cccc(/C=C/C(=O)c2ccccc2NC(=O)CCCl)c1
inactive: [16] 99 % of control | [17] 99 % of control | [18] 93 % of control

Nc1ncnc(N)c1N=O
inactive: dose: 50.0 mg/kg/injection, schedule: Q04DX003 (ip), vehicle: saline with Tween-80 100 % of control | [24] 104 % of control | [25] 100 % of control

O=C1N(Cl)C(=O)C2(c3ccccc3-c3ccccc32)N1Cl
inactive: [1] 100 % of control | [2] 108 % of control

CCOC1OCN(C(C)(C)C)CC1(C)C (stereo not drawn)
inactive: [15] 104 % of control | [8] 120 % of control

COc1cc(/C(C)=N/N=C(\C)c2ccc(O)c(OC)c2)ccc1O
inactive: [4] 100 % of control | [5] 95 % of control | [6] 100 % of control

[N-]=[N+]=NC1(N=[N+]=[N-])C(=O)Nc2ccc(Cl)cc2C1=O (stereo not drawn)
inactive: [1] 107 % of control | [2] 88 % of control

COC1CC(O)C2OC(c3ccccc3)OCC2O1 (stereo not drawn)
inactive: [4] 101 % of control | [5] 105 % of control | [6] 99 % of control

CNC(=O)OCc1c(C)oc(-c2ccccc2)c1COC(=O)NC
inactive: dose: 12.5 mg/kg/injection, schedule: Q01DX009 (ip), vehicle: distilled water + Tween-80 93 % of control | dose: 25.0 mg/kg/injection, schedule: Q01DX009 (ip), vehicle: distilled water + Tween-80 90 % of control | dose: 50.0 mg/kg/injection, schedule: Q01DX009 (ip), vehicle: distilled water + Tween-80 100 % of control

CC1=CC(C)=C(C#N)C2=S=C(c3ccccc3)C(=O)N12
inactive: dose: 6.25 mg/kg/injection, schedule: Q01DX005 (ip), vehicle: saline with Tween-80 97 % of control | dose: 12.5 mg/kg/injection, schedule: Q01DX005 (ip), vehicle: saline with Tween-80 94 % of control | dose: 25.0 mg/kg/injection, schedule: Q01DX005 (ip), vehicle: saline with Tween-80 94 % of control | [12] 88 % of control | [13] 88 % of control

O=C(O)C1CCC(=O)N1C(=O)OCc1ccccc1 (stereo not drawn)
inactive: [24] 95 % of control | [25] 90 % of control | dose: 400.0 mg/kg/injection, schedule: Q04DX003 (ip), vehicle: saline with Tween-80 90 % of control

COC(=O)C1CC(c2ccccc2)N(c2ccccc2)O1 (stereo not drawn)
inactive: [22] 100 % of control | [23] 103 % of control | [26] 100 % of control

CCCCCCCCCCCCCCCCCCOC(=O)C(N)Cc1ccc(O)cc1 (stereo not drawn)
inactive: [19] 106 % of control | [20] 101 % of control | [21] 105 % of control

CC(C)NC(=O)OCc1ncn(-c2ccccc2)c1COC(=O)NC(C)C
inactive: [7] 103 % of control | dose: 25.0 mg/kg/injection, schedule: Q01DX005 (ip), vehicle: Klucel (hydroxypropylcellulose) (HPC) 103 % of control | [1] 87 % of control and 97 % of control | [2] 87 % of control and 91 % of control

COC(=O)/C=C/N=[N+]=[N-]
inactive: [16] 106 % of control | [17] 106 % of control | [18] 106 % of control

COc1cc2c(c(OC)c1OC)C(=O)/C(=C\c1ccccc1)O2
inactive: dose: 3.13 mg/kg/injection, schedule: Q01DX009 (ip), vehicle: saline with Tween-80 105 % of control | dose: 6.25 mg/kg/injection, schedule: Q01DX009 (ip), vehicle: saline with Tween-80 101 % of control and 102 % of control and 95 % of control | [14] 100 % of control and 105 % of control and 114 % of control | [15] 105 % of control and 121 % of control and 93 % of control | [8] 118 % of control and 96 % of control

O=C(Nc1ccc(Cl)c(Cl)c1)C1C(=O)C(=O)N(c2ccc(Cl)c(Cl)c2)C1=O (stereo not drawn)
inactive: [22] 97 % of control | [16] 101 % of control | [23] 109 % of control | [17] 100 % of control | [26] 103 % of control | [18] 103 % of control

Cc1ncc(C(N)=S)c(N)n1
inactive: [8] 103 % of control | [9] 108 % of control | [10] 105 % of control

O=C(O)c1ccc2c3c(ncnc13)-c1ccccc1C2=O
inactive: dose: 6.25 mg/kg/injection, schedule: Q01DX009 (ip), vehicle: Klucel (hydroxypropylcellulose) (HPC) 103 % of control | dose: 12.5 mg/kg/injection, schedule: Q01DX009 (ip), vehicle: Klucel (hydroxypropylcellulose) (HPC) 111 % of control and 96 % of control | dose: 25.0 mg/kg/injection, schedule: Q01DX009 (ip), vehicle: Klucel (hydroxypropylcellulose) (HPC) 112 % of control and 96 % of control | [22] 105 % of control and 109 % of control and 111 % of control | [23] 100 % of control | [26] 109 % of control
